Test results: US20210277003A1, “OGA INHIBITOR COMPOUNDS” (Janssen Pharmaceutica NV, priority 2018, published 2021)

Assays:
[1] = target: T1, recombinant human Meningioma Expressed Antigen 5 (MGEA5), also referred to as O-GlcNAcase (OGA) (Homo sapiens, UniProt O60502); assay: OGA biochemical assay: inhibition of hydrolysis of fluorescein mono-ß-D-N-Acetyl-Glucosamine (FM-GlcNAc), fluorescence readout; conditions: FM-GlcNAc substrate; for Emax: read-out: Enzymatic Emax (%); for IC50: read-out: Enzymatic hOGA, pIC50 (converted)
T1 construct: Full length OGA enzyme was purchased at OnGene (cat #TP322411); purchased OnGene (so in the source)
T1 sequence (O60502 1-916): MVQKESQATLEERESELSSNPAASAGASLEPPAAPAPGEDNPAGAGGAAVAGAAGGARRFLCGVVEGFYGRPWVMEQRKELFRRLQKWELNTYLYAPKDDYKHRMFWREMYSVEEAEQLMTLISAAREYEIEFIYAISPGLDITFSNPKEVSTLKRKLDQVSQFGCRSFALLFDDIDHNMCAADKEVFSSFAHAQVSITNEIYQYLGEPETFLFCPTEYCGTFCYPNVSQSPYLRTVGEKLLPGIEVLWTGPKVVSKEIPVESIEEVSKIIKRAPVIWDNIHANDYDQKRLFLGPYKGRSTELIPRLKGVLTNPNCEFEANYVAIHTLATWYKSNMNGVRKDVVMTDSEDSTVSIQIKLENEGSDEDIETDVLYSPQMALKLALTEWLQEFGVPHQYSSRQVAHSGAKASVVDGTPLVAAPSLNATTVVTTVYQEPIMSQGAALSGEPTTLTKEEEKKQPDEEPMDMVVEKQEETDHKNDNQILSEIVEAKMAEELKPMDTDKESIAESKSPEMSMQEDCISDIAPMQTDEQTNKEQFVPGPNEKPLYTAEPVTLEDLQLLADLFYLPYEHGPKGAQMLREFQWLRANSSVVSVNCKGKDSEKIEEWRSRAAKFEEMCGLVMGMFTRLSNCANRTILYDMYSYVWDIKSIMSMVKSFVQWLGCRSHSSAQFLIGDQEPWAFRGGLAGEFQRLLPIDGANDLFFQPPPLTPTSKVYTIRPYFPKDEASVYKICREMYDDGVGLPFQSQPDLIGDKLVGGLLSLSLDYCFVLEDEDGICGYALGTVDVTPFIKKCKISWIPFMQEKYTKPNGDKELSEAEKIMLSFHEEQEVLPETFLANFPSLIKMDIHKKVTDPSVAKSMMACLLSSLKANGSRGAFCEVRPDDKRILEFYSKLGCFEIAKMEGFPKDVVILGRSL
Text: The assay is based on the inhibition of the hydrolysis of fluorescein mono-ß-D-N-Acetyl-Glucosamine (FM-GlcNAc) (Mariappa et al. 2015, Biochem J 470:255) by the recombinant human Meningioma Expressed Antigen 5 (MGEA5), also referred to as O-GlcNAcase (OGA). The hydrolysis FM-GlcNAc (Marker Gene technologies, cat #M1485) results in the formation of ß-D-N-glucosamineacetate and fluorescein. The fluorescence of the latter can be measured at excitation wavelength 485 nm and emission wavelength 538 nm. An increase in enzyme activity results in an increase in fluorescence signal. Full length OGA enzyme was purchased at OnGene (cat #TP322411). The enzyme was stored in 25 mM Tris.HCl, pH 7.3, 100 mM glycine, 10% glycerol at −20° C. Thiamet G and GlcNAcStatin were tested as reference compounds (Yuzwa et al. 2008 Nature Chemical Biology 4:483; Yuzwa et al. 2012 Nature Chemical Biology 8:393). The assay was performed in 200 mM Citrate/phosphate buffer supplemented with 0.005% Tween-20. 35.6 g Na2HPO4 2 H2O (Sigma, #C0759) were dissolved in 1 L water to obtain a 200 mM solution. 19.2 g citric acid (Merck, #1.06580) was dissolved in 1 L water to obtain a 100 mM solution. pH of the sodium phosphate solution was adjusted with the citric acid solution to 7.2. The buffer to stop the reaction consists of a 500 mM Carbonate buffer, pH 11.0. 734 mg FM-GlcNAc were dissolved in 5.48 mL DMSO to obtain a 250 mM solution and was stored at −20° C. OGA was used at a 2 nM concentration and FM-GlcNAc at a 100 uM final concentration. Dilutions were prepared in assay buffer. 50 nl of a compound dissolved in DMSO was dispensed on Black Proxiplate™ 384 Plus Assay plates (Perkin Elmer, #6008269) and 3 μl fl-OGA enzyme mix added subsequently. Plates were pre-incubated for 60 min at room temperature and then 2 μl FM-GlcNAc substrate mix added. […] Plates were briefly centrifuged for 1 min at 1000 rpm and incubate at room temperature for 6 h. To stop the reaction 5 μl STOP buffer were added and plates centrifuge again 1 min at 1000 rpm. Fluorescence was quantified in the Thermo Scientific Fluoroskan Ascent or the PerkinElmer EnVision with excitation wavelength 485 nm and emission wavelength 538 nm. For analysis a best-fit curve is fitted by a minimum sum of squares method. From this an IC50 value and Hill coefficient was obtained. High control (no inhibitor) and low control (saturating concentrations of standard inhibitor) were used to define the minimum and maximum values.

[2] = tested on: OGA in HEK293 cells inducible for P301L mutant human Tau (isoform 2N4R); assay: OGA cellular assay: immunocytochemical detection of O-GlcNAcylated proteins (CTD110.6 antibody); type: cell-based; conditions: Homo sapiens, HEK293, 6 h, 6 hours incubation; for Emax: maximum = Thiamet G 200 uM; for EC50: read-out: Cellular hOGA, pEC50 (converted)
Description: HEK293 cells inducible for P301L mutant human Tau (isoform 2N4R) were established at Janssen. Thiamet-G was used for both plate validation (high control) and as reference compound (reference EC50 assay validation). OGA inhibition is evaluated through the immunocytochemical (ICC) detection of O-GlcNAcylated proteins by the use of a monoclonal antibody (CTD110.6; Cell Signaling, #9875) detecting 0-GlcNAcylated residues as previously described (Dorfmueller et al. 2010 Chemistry & biology, 17:1250). Inhibition of OGA will result in an increase of O-GlcNAcylated protein levels resulting in an increased signal in the experiment. Cell nuclei are stained with Hoechst to give a cell culture quality control and a rough estimate of immediate compounds toxicity, if any. ICC pictures are imaged with a Perkin Elmer Opera Phenix plate microscope and quantified with the provided software Perkin Elmer Harmony 4.1.
Cells were propagated in DMEM high Glucose (Sigma, #D5796) following standard procedures. 2 days before the cell assay cells are split, counted and seeded in Poly-D-Lysine (PDL) coated 96-wells (Greiner, #655946) plate at a cell density of 12,000 cells per cm^2 (4,000 cells per well) in 100p of Assay Medium (Low Glucose medium is used to reduce basal levels of GlcNAcylation) (Park et al. 2014 The Journal of biological chemistry 289:13519). At the day of compound test medium from assay plates was removed and replenished with 90 µl of fresh Assay Medium. 10p of compounds at a 10 fold final concentration were added to the wells. Plates were centrifuged shortly before incubation in the cell incubator for 6 hours. DMSO concentration was set to 0.2%. Medium is discarded by applying vacuum. For staining of cells medium was removed and cells washed once with 100 μl D-PBS (Sigma, #D8537). From next step onwards unless other stated assay volume was always 50p and incubation was performed without agitation and at room temperature. Cells were fixed in 50 μl of a 4% paraformaldehyde (PFA, Alpha aesar, #043368) PBS solution for 15 minutes at room temperature. […] Before analysis samples were washed 2 times manually for 5 minutes in ICC base buffer.
Imaging is performed using Perkin Elmer Phenix Opera using a water 20× objective and recording 9 fields per well. Intensity readout at 488 nm is used as a measure of O-GlcNAcylation level of total proteins in wells. To assess potential toxicity of compounds nuclei were counted using the Hoechst staining. IC50-values are calculated using parametric non-linear regression model fitting. As a maximum inhibition Thiamet G at a 200 uM concentration is present on each plate. In addition, a concentration response of Thiamet G is calculated on each plate.

Cc1ccnc(OC(F)F)c1Nc1nccc2c1ccn2CC1CCO1 (stereo not shown) [Compound 119]
Enzymatic hOGA; pIC50 [1]: 8 | Emax [1]: 105% | Emax [2]: 80.3% | EC50 [2]: 102 nM

CCCCn1ccc2c(Nc3c(C)ccc(C(=O)N(C)C)c3C)nccc21 [Compound 59]
Emax [1]: 101% | IC50 [1]: 4.37 nM | Emax [2]: 88% | EC50 [2]: 100 nM

Cc1ccnc(C(C)C)c1Nc1nccc2c1ccn2CC1CC(F)(F)C1 [Compound 117]
Enzymatic hOGA; pIC50 [1]: 8.26 | Emax [1]: 101% | Emax [2]: 89.6% | EC50 [2]: 44.7 nM

Cc1ccnc(OC(F)F)c1Nc1nccc2c1ccn2CC(C)(F)F [Compound 132]
Enzymatic hOGA; pIC50 [1]: 7.94 | Emax [1]: 99.7% | Emax [2]: 82.2% | EC50 [2]: 110 nM

Cn1ccc(-n2ccc3c(Nc4c(Cl)cc(F)cc4Cl)nccc32)n1 [Compound 184]
Emax [1]: 101% | IC50 [1]: 79.4 nM | Emax [2]: 46.5% | EC50 [2]: 912 nM

CCCCn1ccc2c(Nc3c(C)ccnc3C)nccc21 [Compound 6]
Enzymatic hOGA; pIC50 [1]: 8.16 | Emax [1]: 102% | Emax [2]: 89% | EC50 [2]: 50.1 nM

Cc1ccnc(C(C)C)c1Nc1nccc2c1ccn2CC1CCO1 (stereo not shown) [Compound 160]
Enzymatic hOGA; pIC50 [1]: 8.67 | Emax [1]: 103% | Emax [2]: 96% | EC50 [2]: 8.13 nM

Cc1ccnc(C)c1Nc1nccc2c1ccn2CCC(F)F [Compound 96]
Enzymatic hOGA; pIC50 [1]: 7.1 | Emax [1]: 102% | Emax [2]: 60% | EC50 [2]: 513 nM

Cc1ccnc(C(F)F)c1Nc1nccc2c1ccn2CC1CCO1 (stereo not shown) [Compound 81]
Emax [1]: 102% | IC50 [1]: 9.55 nM | Emax [2]: 74% | EC50 [2]: 102 nM

Cc1ccnc(C(C)(C)F)c1Nc1nccc2c1ccn2CC(C)(F)F [Compound 205]
Emax [1]: 98.2% | IC50 [1]: 3.02 nM | Emax [2]: 88.6% | EC50 [2]: 9.55 nM

Cc1ccnc(C)c1Nc1nccc2c1ccn2CC(C)O (stereo not shown) [Compound 144]
Enzymatic hOGA; pIC50 [1]: 7.25 | Emax [1]: 100% | Emax [2]: 79% | EC50 [2]: 182 nM

Cc1cc(Cl)cc(C(F)(F)F)c1Nc1nccc2c1ccn2CC(C)(F)F [Compound 129]
Enzymatic hOGA; pIC50 [1]: 8.59 | Emax [1]: 100% | Emax [2]: 104% | EC50 [2]: 7.41 nM

CC[C@H](O)Cn1ccc2c(Nc3c(C)cc(C(F)(F)F)cc3C)nccc21 [Compound 124b]
Enzymatic hOGA; pIC50 [1]: 8.04 | Emax [1]: 102% | Emax [2]: 76.7% | EC50 [2]: 27.5 nM

CCCCn1ccc2c(Nc3c(Cl)cnc4c3OCCO4)nccc21 [Compound 18]
Enzymatic hOGA; pIC50 [1]: 7.46 | Emax [1]: 102% | Emax [2]: 62% | EC50 [2]: 575 nM

CCCCn1ccc2c(Nc3c(Cl)cc4c(c3C)OCCO4)nccc21 [Compound 76]
Emax [1]: 101% | IC50 [1]: 2.95 nM | Emax [2]: 100% | EC50 [2]: 23.4 nM

Cc1ccnc(C(F)F)c1Nc1nccc2c1ccn2CC1CC(F)(F)C1 [Compound 115]
Enzymatic hOGA; pIC50 [1]: 7.2 | Emax [1]: 99.6% | Emax [2]: 52.3% | EC50 [2]: ~891 nM

Cc1cncc(C(C)(C)O)c1Nc1nccc2c1ccn2CC1CCO1 (stereo not shown) [Compound 125]
Enzymatic hOGA; pIC50 [1]: 7.91 | Emax [1]: 103% | Emax [2]: 74.8% | EC50 [2]: 43.7 nM

Cc1cc(-c2cnn(C)c2)cc(C)c1Nc1nccc2c1ccn2CC(F)(F)C(C)C [Compound 178]
Emax [1]: 101% | IC50 [1]: 1.12 nM | Emax [2]: 103% | EC50 [2]: 2.95 nM

CCCCn1ccc2c(Nc3c(C)cc(C(=O)N(C)C)cc3C)nccc21 [Compound 61]
Emax [1]: 103% | IC50 [1]: 3.72 nM | Emax [2]: 92% | EC50 [2]: 5.89 nM

Fc1cc(Cl)c(Nc2nccc3c2ccn3CC2CCOC2)c(Cl)c1 (stereo not shown) [Compound 139]
Enzymatic hOGA; pIC50 [1]: 7.8 | Emax [1]: 104% | Emax [2]: 69.7% | EC50 [2]: 398 nM

Cc1cc(F)cc(C(C)C)c1Nc1nccc2c1ccn2CC(C)(F)F [Compound 148]
Enzymatic hOGA; pIC50 [1]: 8.89 | Emax [1]: 102% | Emax [2]: 87.5% | EC50 [2]: ~4.79 nM

Cc1cc(C)c(Nc2nccc3c2ccn3CC(C)(F)F)c(C)c1 [Compound 135]
Enzymatic hOGA; pIC50 [1]: 8.64 | Emax [1]: 98.8% | Emax [2]: 82.2% | EC50 [2]: 9.33 nM

CCCCn1ccc2c(Nc3c(C)cncc3C(F)(F)F)nccc21 [Compound 86]
Emax [1]: 101% | IC50 [1]: 21.9 nM | Emax [2]: 71% | EC50 [2]: 309 nM

Cc1ccnc(C(C)C)c1Nc1nccc2c1ccn2CC1CCOC1 (stereo not shown) [Compound 141]
Enzymatic hOGA; pIC50 [1]: 7.76 | Emax [1]: 103% | Emax [2]: 74.7% | EC50 [2]: 107 nM

Cc1ccnc(C)c1Nc1nccc2c1ccn2CC1CCCO1 (stereo not shown) [Compound 137]
Enzymatic hOGA; pIC50 [1]: 7.14 | Emax [1]: 99.1% | Emax [2]: 60.4% | EC50 [2]: 513 nM
